One may read the IC50 as the concentration needed to halve the response being measured.

Where only a bound is given, the exact number is not on record here.

For one series, the target named is CYP2C9 (Homo sapiens, UniProt P11712). As to the kind of experiment: CYP2C9 inhibition (fluorescent substrate). It is filed as in vitro ADME. The note with it: CYP2C9, MFC substrate; read-out: Cyp IC50 2C9. The method, boiled down:
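Human CYP activity was followed by the fluorescence of the metabolized product of a known substrate, which falls as metabolism is inhibited. Compounds from 100 mM DMSO stocks were serially diluted 1:1 over 10 points in co-factor mix and preincubated 10 min at 37 °C. IC50 was fitted from signal versus concentration.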

Series [1] is described as follows: Relative solubility by turbidity in aqueous buffers of varying pH. It counts as physicochemical. The note with it: for turbidity threshold (L, M, H) 7.4: HEPES pH 7.4; for turbidity threshold (L, M, H) 4.5: SIF pH 4.5; for turbidity threshold (L, M, H) 6.8: SIF pH 6.8; for turbidity threshold (L, M, H) 1.4: buffer pH 1.4 (SGF). The procedure, abridged: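 Turbidity endpoint: concentration where optical density at 490, 535 and 650 nm exceeds 0.01, three-wavelength average used. Buffers at pH 1.5, 4.5, 6.8 and 7.4; DMSO serial dilutions of 25 mM stock spiked 1 μL into 99 μL buffer. Low <31.3, moderate 31.3–250, high >250 μM.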

Series [2] deals with COLO205 colon adenocarcinoma cells (B-Raf V600E). As to the kind of experiment: COLO205 cell growth inhibition (ATPlite). Particulars: Homo sapiens, COLO 205, 72 h; COLO205, 3 days incubation. It counts as cell-based. The procedure, abridged: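 Cells plated overnight, then exposed 3 days at 37° C to 8-point 1:3 compound dilutions topping at 10 μM final. Viability read as ATPlite luminescence, proportional to cell number; IC50 from luminescence versus concentration.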
(In general: Cellular ATP, detected with luciferase, serves as a proxy for viable cell number.)

Sequence of CYP2C9 (P11712 whole entry): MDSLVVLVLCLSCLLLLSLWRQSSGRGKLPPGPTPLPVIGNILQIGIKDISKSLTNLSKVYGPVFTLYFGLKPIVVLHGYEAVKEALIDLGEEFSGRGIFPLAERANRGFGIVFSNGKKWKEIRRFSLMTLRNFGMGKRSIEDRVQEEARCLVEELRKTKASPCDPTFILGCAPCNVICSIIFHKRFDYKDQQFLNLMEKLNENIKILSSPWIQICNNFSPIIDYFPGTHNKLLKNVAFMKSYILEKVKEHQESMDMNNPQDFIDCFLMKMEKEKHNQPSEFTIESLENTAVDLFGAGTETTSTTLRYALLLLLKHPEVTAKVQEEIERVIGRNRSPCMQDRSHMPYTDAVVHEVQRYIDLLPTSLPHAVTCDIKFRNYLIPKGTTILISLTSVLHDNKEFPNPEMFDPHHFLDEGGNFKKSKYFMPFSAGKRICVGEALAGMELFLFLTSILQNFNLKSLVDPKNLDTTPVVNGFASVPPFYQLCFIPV

`CCCS(=O)(=O)Nc1ccc(F)c(C(=O)c2c[nH]c3ncc(-c4ccc(S(=O)(=O)NC5CC5)cc4)cc23)c1F` [P-2168, N-Cyclopropyl-4-{3-[2,6-difluoro-3-(propane-1-sulfonylamino)-benzoyl]-1H-pyrrolo[2,3-b]pyridin-5-yl}-benzenesulfonamide]: the half-maximal inhibitory concentration (IC50) on CYP2C9 is under 5 µM. Besides, in series [1], the “turbidity threshold (L, M, H) 7.4” value is listed as “L (low solubility if the threshold concentration is <31.3 04)”; the “turbidity threshold (L, M, H) 4.5” value was “L (low solubility if the threshold concentration is <31.3 04)”; the “turbidity threshold (L, M, H) 6.8” value is on record as “L (low solubility if the threshold concentration is <31.3 04)”; the “turbidity threshold (L, M, H) 1.4” value is recorded as “L (low solubility if the threshold concentration is <31.3 04)”. Also, the IC50 in series [2] was under 0.1 µM.

As to `CCCS(=O)(=O)Nc1ccc(F)c(C(=O)c2c[nH]c3ncc(-c4ccc(NS(C)(=O)=O)cc4)cc23)c1F` [P-2165, Propane-1-sulfonic acid {2,4-difluoro-3-[5-(4-methanesulfonylamino-phenyl)-1H-pyrrolo[2,3-b]pyridine-3-carbonyl]-phenyl}-amide], the IC50 at CYP2C9 is 5 to 10 µM. Further, in series [1], the “turbidity threshold (L, M, H) 7.4” value is “L (low solubility if the threshold concentration is <31.3 04)”; the “turbidity threshold (L, M, H) 4.5” value was “L (low solubility if the threshold concentration is <31.3 04)”; the “turbidity threshold (L, M, H) 6.8” value is given as “L (low solubility if the threshold concentration is <31.3 04)”; the “turbidity threshold (L, M, H) 1.4” value was “L (low solubility if the threshold concentration is <31.3 04)”. In series [2], this compound registered an IC50 of under 1 µM.

With `CCCS(=O)(=O)Nc1ccc(F)c(C(=O)c2c[nH]c3ncc(-c4ccc(S(=O)(=O)N(C)C)cc4)cc23)c1F` [P-2185, 4-{3-[2,6-Difluoro-3-(propane-1-sulfonylamino)-benzoyl]-1H-pyrrolo[2,3-b]pyridin-5-yl}-N,N-dimethyl-benzenesulfonamide], on CYP2C9, the IC50 is under 5 µM. Further, in series [1], the “turbidity threshold (L, M, H) 7.4” value is given as “L (low solubility if the threshold concentration is <31.3 04)”; the “turbidity threshold (L, M, H) 4.5” value is “L (low solubility if the threshold concentration is <31.3 04)”; the “turbidity threshold (L, M, H) 6.8” value is on record as “L (low solubility if the threshold concentration is <31.3 04)”; the “turbidity threshold (L, M, H) 1.4” value is recorded as “L (low solubility if the threshold concentration is <31.3 04)”. In series [2], the IC50 is under 0.1 µM.

For the compound `N#Cc1cnc2[nH]cc(C(=O)c3c(F)ccc(NS(=O)(=O)c4ccccc4)c3F)c2c1` [P-2046, N-[3-(5-Cyano-1H-pyrrolo[2,3-b]pyridine-3-carbonyl)-2,4-difluoro-phenyl]-benzenesulfonamide], the IC50 at CYP2C9 is under 5 µM. In series [1], the “turbidity threshold (L, M, H) 7.4” value is listed as “M (moderate solubility if the threshold concentration is 31.3 μM to 250 μM)”; the “turbidity threshold (L, M, H) 4.5” value is on record as “L (low solubility if the threshold concentration is <31.3 04)”; the “turbidity threshold (L, M, H) 6.8” value is “M (moderate solubility if the threshold concentration is 31.3 μM to 250 μM)”; the “turbidity threshold (L, M, H) 1.4” value was “L (low solubility if the threshold concentration is <31.3 04)”. For the same compound, the IC50 in series [2] was under 1 µM.

On to `O=C(c1c(F)ccc(NS(=O)(=O)c2cccc(F)c2)c1F)c1c[nH]c2nccc(Cl)c12` [P-2019, N-[3-(4-Chloro-1H-pyrrolo[2,3-b]pyridine-3-carbonyl)-2,4-difluoro-phenyl]-3-fluoro-benzenesulfonamide], for which the IC50 at CYP2C9 was over 10 µM. Moreover, in series [1], the “turbidity threshold (L, M, H) 7.4” value is listed as “M (moderate solubility if the threshold concentration is 31.3 μM to 250 μM)”; the “turbidity threshold (L, M, H) 4.5” value is reported as “M (moderate solubility if the threshold concentration is 31.3 μM to 250 μM)”; the “turbidity threshold (L, M, H) 6.8” value is on record as “M (moderate solubility if the threshold concentration is 31.3 μM to 250 μM)”; the “turbidity threshold (L, M, H) 1.4” value is recorded as “L (low solubility if the threshold concentration is <31.3 04)”. Also, the IC50 in series [2] is under 5 µM.

On to `COc1cnc2[nH]cc(C(=O)c3c(F)ccc(NS(=O)(=O)c4ccccc4F)c3F)c2c1` [P-2009, N-[2,4-Difluoro-3-(5-methoxy-1H-pyrrolo[2,3-b]pyridine-3-carbonyl)-phenyl]-2-fluoro-benzenesulfonamide], for which the IC50 at CYP2C9 is over 10 µM. Besides, in series [1], the “turbidity threshold (L, M, H) 7.4” value is “M (moderate solubility if the threshold concentration is 31.3 μM to 250 μM)”; the “turbidity threshold (L, M, H) 4.5” value is recorded as “L (low solubility if the threshold concentration is <31.3 04)”; the “turbidity threshold (L, M, H) 6.8” value is “L (low solubility if the threshold concentration is <31.3 04)”; the “turbidity threshold (L, M, H) 1.4” value was “L (low solubility if the threshold concentration is <31.3 04)”. Also, in series [2], the IC50 is under 5 µM.

As to `N#Cc1cnc2[nH]cc(C(=O)c3c(F)ccc(NS(=O)(=O)c4ccccc4F)c3F)c2c1` [P-2011, N-[3-(5-Cyano-1H-pyrrolo[2,3-b]pyridine-3-carbonyl)-2,4-difluoro-phenyl]-2-fluoro-benzenesulfonamide], at CYP2C9, the IC50 was over 10 µM. In series [1], the “turbidity threshold (L, M, H) 7.4” value is on record as “M (moderate solubility if the threshold concentration is 31.3 μM to 250 μM)”; the “turbidity threshold (L, M, H) 4.5” value was “M (moderate solubility if the threshold concentration is 31.3 μM to 250 μM)”; the “turbidity threshold (L, M, H) 6.8” value was “M (moderate solubility if the threshold concentration is 31.3 μM to 250 μM)”; the “turbidity threshold (L, M, H) 1.4” value is listed as “M (moderate solubility if the threshold concentration is 31.3 μM to 250 μM)”. The IC50 in series [2] was under 1 µM.

Consider `COc1ncc(-c2cnc3[nH]cc(C(=O)c4c(F)ccc(NS(=O)(=O)c5cc(F)ccc5F)c4F)c3c2)cn1` [P-2042, N-{2,4-Difluoro-3-[5-(2-methoxy-pyrimidin-5-yl)-1H-pyrrolo[2,3-b]pyridine-3-carbonyl]-phenyl}-2,5-difluoro-benzenesulfonamide], for which the concentration for half-maximal inhibition (IC50) on CYP2C9 is 5 to 10 µM. In series [1], the “turbidity threshold (L, M, H) 7.4” value was “L (low solubility if the threshold concentration is <31.3 04)”; the “turbidity threshold (L, M, H) 4.5” value is given as “L (low solubility if the threshold concentration is <31.3 04)”; the “turbidity threshold (L, M, H) 6.8” value is “L (low solubility if the threshold concentration is <31.3 04)”; the “turbidity threshold (L, M, H) 1.4” value is “L (low solubility if the threshold concentration is <31.3 04)”. The IC50 in series [2] was under 0.1 µM.

In the case of `CCCS(=O)(=O)Nc1cccc(C(=O)c2c[nH]c3ncc(-c4cnc(OC)nc4)cc23)c1F` [P-2407, Propane-1-sulfonic acid {2-fluoro-3-[5-(2-methoxy-pyrimidin-5-yl)-1H-pyrrolo[2,3-b]pyridine-3-carbonyl]-phenyl}-amide], the IC50 at CYP2C9 was over 10 µM. In series [1], the “turbidity threshold (L, M, H) 7.4” value is listed as “L (low solubility if the threshold concentration is <31.3 04)”; the “turbidity threshold (L, M, H) 4.5” value is given as “L (low solubility if the threshold concentration is <31.3 04)”; the “turbidity threshold (L, M, H) 6.8” value is listed as “L (low solubility if the threshold concentration is <31.3 04)”; the “turbidity threshold (L, M, H) 1.4” value is on record as “L (low solubility if the threshold concentration is <31.3 04)”. The IC50 in series [2] was under 1 µM.

As for `CCCS(=O)(=O)Nc1ccc(F)c(C(=O)c2c[nH]c3ncc(-c4cnc(SC)nc4)cc23)c1F` [P-2189, Propane-1-sulfonic acid {2,4-difluoro-3-[5-(2-methylsulfanyl-pyrimidin-5-yl)-1H-pyrrolo[2,3-b]pyridine-3-carbonyl]-phenyl}-amide], the IC50 on CYP2C9 was under 5 µM. Besides, in series [1], the “turbidity threshold (L, M, H) 7.4” value is “L (low solubility if the threshold concentration is <31.3 04)”; the “turbidity threshold (L, M, H) 4.5” value is on record as “L (low solubility if the threshold concentration is <31.3 04)”; the “turbidity threshold (L, M, H) 6.8” value is listed as “L (low solubility if the threshold concentration is <31.3 04)”; the “turbidity threshold (L, M, H) 1.4” value was “L (low solubility if the threshold concentration is <31.3 04)”. The same compound yielded a 50% inhibitory concentration (IC50) in series [2] of under 1 µM.

In the case of `CCCS(=O)(=O)Nc1ccc(F)c(C(=O)c2c[nH]c3ncc(-c4ccc(NC(C)=O)nc4)cc23)c1F` [P-2193, N-(5-{3-[2,6-Difluoro-3-(propane-1-sulfonylamino)-benzoyl]-1H-pyrrolo[2,3-b]pyridin-5-yl}-pyridin-2-yl)-acetamide], on CYP2C9, the half-maximal inhibitory concentration (IC50) is over 10 µM. In series [1], the “turbidity threshold (L, M, H) 7.4” value is listed as “L (low solubility if the threshold concentration is <31.3 04)”; the “turbidity threshold (L, M, H) 4.5” value is “L (low solubility if the threshold concentration is <31.3 04)”; the “turbidity threshold (L, M, H) 6.8” value was “L (low solubility if the threshold concentration is <31.3 04)”; the “turbidity threshold (L, M, H) 1.4” value is recorded as “M (moderate solubility if the threshold concentration is 31.3 μM to 250 μM)”. Moreover, the IC50 in series [2] was under 1 µM.

Regarding `COc1ncc(-c2cnc3[nH]cc(C(=O)c4c(F)ccc(NS(=O)(=O)c5ccccc5F)c4F)c3c2)cn1` [P-2041, N-{2,4-Difluoro-3-[5-(2-methoxy-pyrimidin-5-yl)-1H-pyrrolo[2,3-b]pyridine-3-carbonyl]-phenyl}-2-fluoro-benzenesulfonamide], the IC50 at CYP2C9 is over 10 µM. In addition, in series [1], the “turbidity threshold (L, M, H) 7.4” value is on record as “L (low solubility if the threshold concentration is <31.3 04)”; the “turbidity threshold (L, M, H) 4.5” value is given as “L (low solubility if the threshold concentration is <31.3 04)”; the “turbidity threshold (L, M, H) 6.8” value is recorded as “L (low solubility if the threshold concentration is <31.3 04)”; the “turbidity threshold (L, M, H) 1.4” value is listed as “L (low solubility if the threshold concentration is <31.3 04)”. In addition, the IC50 in series [2] is under 1 µM.

For the origin of these results see patent US8198273B2, “Compounds and methods for kinase modulation, and indications therefor” (Plexxikon Inc., priority 2009, dated 2012).
